A word on the IC50: it is the concentration that inhibits the measured activity by half.

What all share (format): binding
For one test, the target named is T1, JAK1 (Homo sapiens, UniProt P23458).
T1 construct: endogenous in cells; host or cells: Molt4 (ATCC CRL-1582) and Ramos (ATCC CRL-1596) cells; mixed lysate 1:2
As to the kind of experiment: Kinobeads assay with immunodetection, JAK1. Particulars: for IC50: Kinobeads assay, mixed Molt4/Ramos lysate, read-out: Inhibition values (IC50) JAK1. Put shortly:
(§1)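 Competition binding: test compounds (9-step 1:3 dilutions of a 5 mM DMSO stock) compete with affinity matrix ligand for kinases in Molt4 plus Ramos lysate (ratio 1:2, 10 mg/mL) over 3 h in a cold room. Captured kinases are detected by specific antibodies in dot blot, and IC50 values are derived per kinase.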

The next test has as its target T2, JAK3 (Homo sapiens, UniProt P52333).
T2 construct: endogenous in cells; host or cells: Molt4 (ATCC CRL-1582) and Ramos (ATCC CRL-1596) cells; mixed lysate 1:2
T2 sequence (P52333 1-1124): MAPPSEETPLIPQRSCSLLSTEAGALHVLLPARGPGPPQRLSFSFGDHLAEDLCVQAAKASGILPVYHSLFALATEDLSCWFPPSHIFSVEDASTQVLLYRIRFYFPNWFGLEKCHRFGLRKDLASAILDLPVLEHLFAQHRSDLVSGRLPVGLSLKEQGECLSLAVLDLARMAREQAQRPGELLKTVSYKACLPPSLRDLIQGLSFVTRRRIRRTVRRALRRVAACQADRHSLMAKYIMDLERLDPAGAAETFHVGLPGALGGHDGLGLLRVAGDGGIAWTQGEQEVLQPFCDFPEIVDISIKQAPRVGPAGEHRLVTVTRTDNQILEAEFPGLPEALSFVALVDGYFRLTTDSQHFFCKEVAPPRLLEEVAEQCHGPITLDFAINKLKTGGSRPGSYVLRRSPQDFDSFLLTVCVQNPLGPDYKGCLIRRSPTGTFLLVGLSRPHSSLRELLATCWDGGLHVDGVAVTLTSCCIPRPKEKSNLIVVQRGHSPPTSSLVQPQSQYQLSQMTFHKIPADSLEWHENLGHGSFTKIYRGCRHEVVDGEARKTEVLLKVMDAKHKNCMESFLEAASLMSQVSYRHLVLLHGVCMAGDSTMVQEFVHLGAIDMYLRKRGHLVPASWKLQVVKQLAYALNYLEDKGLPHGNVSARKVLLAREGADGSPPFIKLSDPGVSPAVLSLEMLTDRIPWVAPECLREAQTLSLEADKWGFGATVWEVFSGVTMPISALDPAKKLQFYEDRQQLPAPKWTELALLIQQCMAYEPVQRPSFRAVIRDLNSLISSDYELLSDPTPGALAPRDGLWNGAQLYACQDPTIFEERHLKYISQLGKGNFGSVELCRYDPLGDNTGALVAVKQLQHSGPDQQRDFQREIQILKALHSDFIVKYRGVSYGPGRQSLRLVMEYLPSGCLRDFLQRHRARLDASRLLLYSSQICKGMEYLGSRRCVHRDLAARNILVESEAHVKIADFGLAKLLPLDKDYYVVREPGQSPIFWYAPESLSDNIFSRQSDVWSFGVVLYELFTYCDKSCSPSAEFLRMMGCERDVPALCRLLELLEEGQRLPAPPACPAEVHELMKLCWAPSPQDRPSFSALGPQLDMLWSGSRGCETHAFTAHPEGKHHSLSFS
As to the kind of experiment: Kinobeads assay with immunodetection, JAK3. Particulars: for IC50: Kinobeads assay, mixed Molt4/Ramos lysate, read-out: Inhibition values (IC50) JAK3. Put shortly:
as §1

The target of the next test is T3, JAK2 (Homo sapiens, UniProt O60674).
T3 construct: endogenous in cells; host or cells: Molt4 (ATCC CRL-1582) and Ramos (ATCC CRL-1596) cells; mixed lysate 1:2
As to the kind of experiment: Kinobeads assay with immunodetection, JAK2. The note with it: mixed Molt4/Ramos lysate, read-out: Inhibition values (IC50) JAK2. The procedure, abridged: as §1

Another test deals with T4, TYK2 (Homo sapiens, UniProt P29597).
T4 construct: endogenous in cells; host or cells: Molt4 (ATCC CRL-1582) and Ramos (ATCC CRL-1596) cells; mixed lysate 1:2
As to the kind of experiment: Kinobeads assay with immunodetection, TYK2. The note with it: for IC50: Kinobeads assay, mixed Molt4/Ramos lysate, read-out: Inhibition values (IC50) Tyk2. The procedure, abridged: as §1

T1 sequence (P23458 whole entry): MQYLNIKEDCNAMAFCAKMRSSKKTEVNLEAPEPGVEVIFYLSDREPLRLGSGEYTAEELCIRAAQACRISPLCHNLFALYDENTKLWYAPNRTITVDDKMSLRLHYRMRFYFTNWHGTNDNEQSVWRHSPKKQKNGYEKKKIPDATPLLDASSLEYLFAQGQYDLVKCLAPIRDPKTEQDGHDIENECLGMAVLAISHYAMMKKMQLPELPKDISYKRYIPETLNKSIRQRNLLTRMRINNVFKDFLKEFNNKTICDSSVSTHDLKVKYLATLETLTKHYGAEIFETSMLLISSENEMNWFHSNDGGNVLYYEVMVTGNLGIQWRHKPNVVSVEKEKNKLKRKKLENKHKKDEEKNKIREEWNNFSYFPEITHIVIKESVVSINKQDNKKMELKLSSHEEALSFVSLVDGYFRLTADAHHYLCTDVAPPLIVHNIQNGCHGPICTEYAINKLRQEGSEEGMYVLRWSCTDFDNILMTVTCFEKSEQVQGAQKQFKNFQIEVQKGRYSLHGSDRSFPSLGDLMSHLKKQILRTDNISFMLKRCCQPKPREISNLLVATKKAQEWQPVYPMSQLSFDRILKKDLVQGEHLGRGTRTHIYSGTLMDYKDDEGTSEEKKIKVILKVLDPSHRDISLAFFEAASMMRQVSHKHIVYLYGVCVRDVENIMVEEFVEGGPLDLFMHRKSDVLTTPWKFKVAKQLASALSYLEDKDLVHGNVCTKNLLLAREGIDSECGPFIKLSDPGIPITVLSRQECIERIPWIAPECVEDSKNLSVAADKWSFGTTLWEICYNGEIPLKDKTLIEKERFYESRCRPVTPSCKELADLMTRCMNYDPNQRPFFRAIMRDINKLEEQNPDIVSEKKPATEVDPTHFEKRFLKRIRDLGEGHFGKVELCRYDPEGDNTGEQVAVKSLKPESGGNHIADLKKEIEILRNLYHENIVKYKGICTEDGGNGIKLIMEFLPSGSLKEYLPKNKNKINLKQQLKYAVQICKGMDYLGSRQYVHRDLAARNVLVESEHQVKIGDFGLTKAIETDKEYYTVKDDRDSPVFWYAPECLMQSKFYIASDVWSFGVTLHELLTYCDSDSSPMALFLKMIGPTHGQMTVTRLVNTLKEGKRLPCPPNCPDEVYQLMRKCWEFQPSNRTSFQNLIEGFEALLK
T3 sequence (O60674 whole entry): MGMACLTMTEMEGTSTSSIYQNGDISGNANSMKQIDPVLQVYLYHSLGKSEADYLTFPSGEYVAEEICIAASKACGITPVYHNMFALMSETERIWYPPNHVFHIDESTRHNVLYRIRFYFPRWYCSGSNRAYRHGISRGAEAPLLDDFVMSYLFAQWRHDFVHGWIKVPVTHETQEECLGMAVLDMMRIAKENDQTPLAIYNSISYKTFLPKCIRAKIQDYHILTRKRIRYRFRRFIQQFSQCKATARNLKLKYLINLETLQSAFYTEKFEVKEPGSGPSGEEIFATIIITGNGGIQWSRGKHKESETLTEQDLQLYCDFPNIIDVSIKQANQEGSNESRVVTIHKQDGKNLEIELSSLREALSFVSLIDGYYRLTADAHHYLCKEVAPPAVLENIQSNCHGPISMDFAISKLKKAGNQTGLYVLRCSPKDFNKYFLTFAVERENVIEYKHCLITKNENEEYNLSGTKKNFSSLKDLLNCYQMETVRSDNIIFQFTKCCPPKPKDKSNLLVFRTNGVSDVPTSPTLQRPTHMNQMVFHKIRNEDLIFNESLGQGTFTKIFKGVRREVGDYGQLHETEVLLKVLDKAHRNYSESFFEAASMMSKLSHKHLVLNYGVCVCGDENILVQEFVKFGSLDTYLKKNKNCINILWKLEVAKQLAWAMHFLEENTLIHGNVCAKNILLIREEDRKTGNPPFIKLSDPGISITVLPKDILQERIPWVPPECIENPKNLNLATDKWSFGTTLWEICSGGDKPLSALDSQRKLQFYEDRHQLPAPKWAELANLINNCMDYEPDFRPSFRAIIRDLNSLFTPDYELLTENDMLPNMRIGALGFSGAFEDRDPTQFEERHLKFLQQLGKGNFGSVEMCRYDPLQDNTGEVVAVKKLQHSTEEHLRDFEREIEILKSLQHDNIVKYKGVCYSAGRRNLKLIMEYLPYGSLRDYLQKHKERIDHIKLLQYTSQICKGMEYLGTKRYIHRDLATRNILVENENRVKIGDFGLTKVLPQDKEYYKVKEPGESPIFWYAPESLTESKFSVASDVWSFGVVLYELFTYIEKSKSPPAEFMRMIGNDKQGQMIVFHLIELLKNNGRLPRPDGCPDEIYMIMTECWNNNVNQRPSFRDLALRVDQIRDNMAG
T4 sequence (P29597 whole entry): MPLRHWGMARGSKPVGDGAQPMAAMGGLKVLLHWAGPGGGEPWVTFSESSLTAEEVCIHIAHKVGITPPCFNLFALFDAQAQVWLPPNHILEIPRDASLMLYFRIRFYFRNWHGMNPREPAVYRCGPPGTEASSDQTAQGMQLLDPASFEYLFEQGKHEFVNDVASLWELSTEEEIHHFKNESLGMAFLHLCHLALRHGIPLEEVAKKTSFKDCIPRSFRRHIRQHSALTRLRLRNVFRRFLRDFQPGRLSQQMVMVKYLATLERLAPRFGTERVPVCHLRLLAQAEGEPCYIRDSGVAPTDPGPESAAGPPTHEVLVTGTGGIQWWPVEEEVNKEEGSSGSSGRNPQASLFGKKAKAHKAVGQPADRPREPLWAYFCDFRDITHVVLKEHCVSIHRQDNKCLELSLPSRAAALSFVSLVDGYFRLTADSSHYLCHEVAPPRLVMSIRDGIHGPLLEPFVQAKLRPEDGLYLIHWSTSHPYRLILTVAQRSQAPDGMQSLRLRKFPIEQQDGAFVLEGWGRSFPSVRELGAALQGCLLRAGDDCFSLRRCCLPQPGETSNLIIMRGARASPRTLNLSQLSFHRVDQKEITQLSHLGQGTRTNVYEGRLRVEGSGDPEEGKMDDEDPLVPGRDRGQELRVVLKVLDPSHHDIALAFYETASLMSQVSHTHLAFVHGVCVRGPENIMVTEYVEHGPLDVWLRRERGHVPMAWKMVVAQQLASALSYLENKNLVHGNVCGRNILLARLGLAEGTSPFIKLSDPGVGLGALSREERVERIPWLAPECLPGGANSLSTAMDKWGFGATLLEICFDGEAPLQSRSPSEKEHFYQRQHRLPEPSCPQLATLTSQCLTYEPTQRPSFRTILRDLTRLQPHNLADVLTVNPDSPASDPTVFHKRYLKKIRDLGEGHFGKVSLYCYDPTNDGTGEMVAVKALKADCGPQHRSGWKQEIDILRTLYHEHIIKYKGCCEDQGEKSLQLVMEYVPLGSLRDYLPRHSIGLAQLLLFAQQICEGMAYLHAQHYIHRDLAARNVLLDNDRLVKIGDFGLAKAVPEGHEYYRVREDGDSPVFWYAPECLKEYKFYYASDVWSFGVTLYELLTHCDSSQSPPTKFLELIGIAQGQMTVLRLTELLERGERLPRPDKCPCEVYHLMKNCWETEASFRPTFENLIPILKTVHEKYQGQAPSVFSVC

Turning to `CC(C)NC(=O)Cn1cc(Nc2nccc(NC[C@H]3CCCN3CCC#N)n2)cn1` [Example 83, (R)-2-(4-((4-(((1-(2-cyanoethyl)pyrrolidin-2-yl)methyl)amino)pyrimidin-2-yl)amino)-1H-pyrazol-1-yl)-N-isopropylacetamide], the IC50 on JAK1 is 1000 to 10000 nM; on JAK3, 1000 to 10000 nM; at JAK2 it was above 10000 nM; on TYK2, below 100 nM. In addition, the “Selectivity ratio over JAK2, Tyk2” value at TYK2 is recorded as “Tyk2 = 650”.

On to `CC(C)NC(=O)Cn1cc(Nc2nccc(NC[C@H]3CCCN3CCS(C)(=O)=O)n2)cn1` [Example 84, (R)—N-isopropyl-2-(4-((4-(((1-(2-(methylsulfonyl)ethyl)pyrrolidin-2-yl)methyl)amino)pyrimidin-2-yl)amino)-1H-pyrazol-1-yl)acetamide], for which the 50% inhibitory concentration (IC50) at JAK1 is 100 to 1000 nM; on JAK3, 100 to 1000 nM; on JAK2, above 10000 nM; on TYK2 it was below 100 nM. Moreover, the “Selectivity ratio over JAK2, Tyk2” value on TYK2 is “Tyk2 = 435”.

`CS(=O)(=O)N1CC[C@H](CNc2nc(Nc3cnn(CCO)c3)ncc2Cl)C1` [Example 85, (R)-2-(4-((5-chloro-4-(((1-(methylsulfonyl)pyrrolidin-3-yl)methyl)amino)pyrimidin-2-yl)amino)-1H-pyrazol-1-yl)ethanol]: the “Selectivity ratio over JAK2, JAK1” value on JAK1 is given as “JAK1 = 27”. Also, the IC50 was below 100 nM at JAK1, 100 to 1000 nM on JAK3, 100 to 1000 nM on JAK2 and below 100 nM at TYK2.

`Cn1cc(Nc2ncc(Cl)c(NC[C@H]3CCCN3C(=O)CCC#N)n2)cn1` [Example 86, (R)-4-(2-(((5-chloro-2-((1-methyl-1H-pyrazol-4-yl)amino)pyrimidin-4-yl)amino)methyl)pyrrolidin-1-yl)-4-oxobutanenitrile]: the IC50 at JAK1 is below 100 nM; at JAK3, below 100 nM; on JAK2 it was 100 to 1000 nM; on TYK2, below 100 nM. The “Selectivity ratio over JAK2, Tyk2” value on TYK2 is “Tyk2 = 33”.

On to `Cn1cc(Nc2ncc(Cl)c(NCC3COCCN3CCS(C)(=O)=O)n2)cn1` (centres unmarked) [Example 87, 5-chloro-N^2-(1-methyl-1H-pyrazol-4-yl)-N^4-((4-(2-(methylsulfonyl)ethyl)morpholin-3-yl)methyl)pyrimidine-2,4-diamine], for which the 50% inhibitory concentration (IC50) was 100 to 1000 nM on JAK1, below 100 nM on JAK3, 1000 to 10000 nM on JAK2 and 100 to 1000 nM on TYK2. Further, the “Selectivity ratio over JAK2, JAK3” value on JAK3 is reported as “JAK3 = 33”.

Turning to `CCNC(=O)N1CCC[C@@H]1CNc1nc(Nc2cnn(C)c2)ncc1Cl` [Example 88, (R)-2-(((5-chloro-2-((1-methyl-1H-pyrazol-4-yl)amino)pyrimidin-4-yl)amino)methyl)-N-ethylpyrrolidine-1-carboxamide], the IC50 at JAK1 is 100 to 1000 nM; at JAK3, 100 to 1000 nM; at JAK2 it was 100 to 1000 nM; at TYK2, below 100 nM. For the same compound, the “Selectivity ratio over JAK2, Tyk2” value at TYK2 is “Tyk2 = 35”.

For the compound `Cn1cc(Nc2ncc(Cl)c(NC[C@H]3CCCN3C(=O)NC3CC3)n2)cn1` [Example 89, (R)-2-(((5-chloro-2-((1-methyl-1H-pyrazol-4-yl)amino)pyrimidin-4-yl)amino)methyl)-N-cyclopropylpyrrolidine-1-carboxamide], the 50% inhibitory concentration (IC50) is below 100 nM at JAK1, 100 to 1000 nM at JAK3, 100 to 1000 nM on JAK2 and below 100 nM on TYK2. The “Selectivity ratio over JAK2, Tyk2” value on TYK2 is listed as “Tyk2 = 5”.

For `Cn1cc(Nc2ncc(Cl)c(NC[C@@H]3C[C@H](F)CN3CCC#N)n2)cn1` [Example 90, 3-((2S,4S)-2-(((5-chloro-2-((1-methyl-1H-pyrazol-4-yl)amino)pyrimidin-4-yl)amino)methyl)-4-fluoropyrrolidin-1-yl)propanenitrile], the “Selectivity ratio over JAK2, JAK1” value on JAK1 is given as “JAK1 = 23”. The IC50 is below 100 nM on JAK1, below 100 nM at JAK3, 100 to 1000 nM at JAK2 and below 100 nM at TYK2.

Turning to `Cn1cc(Nc2ncc(Cl)c(NC[C@@H]3C[C@H](F)CN3CCS(C)(=O)=O)n2)cn1` [Example 91, 5-chloro-N^4-(((2S,4S)-4-fluoro-1-(2-(methylsulfonyl)ethyl)pyrrolidin-2-yl)methyl)-N^2-(1-methyl-1H-pyrazol-4-yl)pyrimidine-2,4-diamine], the “Selectivity ratio over JAK2, JAK1” value on JAK1 is “JAK1 = 27”. Besides, the 50% inhibitory concentration (IC50) on JAK1 was below 100 nM; at JAK3, below 100 nM; on JAK2 it was 100 to 1000 nM; on TYK2 it was below 100 nM.

For the compound `Cn1cc(Nc2ncc(Cl)c(NC[C@@H]3CCCN3C(=O)CCC#N)n2)cn1` [Example 92, (S)-4-(2-(((5-chloro-2-((1-methyl-1H-pyrazol-4-yl)amino)pyrimidin-4-yl)amino)methyl)pyrrolidin-1-yl)-4-oxobutanenitrile], the “Selectivity ratio over JAK2, JAK1” value on JAK1 is “JAK1 = 30”. The IC50 on JAK1 is below 100 nM; on JAK3, below 100 nM; at JAK2, 100 to 1000 nM; at TYK2 it was below 100 nM.

Take `Cn1cc(Nc2nccc(NC[C@H]3CCCN3C(=O)CCC#N)n2)cn1` [Example 93, (R)-4-(2-(((2-((1-methyl-1H-pyrazol-4-yl)amino)pyrimidin-4-yl)amino)methyl)pyrrolidin-1-yl)-4-oxobutanenitrile]: the IC50 is below 100 nM at JAK1, 1000 to 10000 nM at JAK3, 1000 to 10000 nM on JAK2 and below 100 nM on TYK2. Also, at TYK2, the “Selectivity ratio over JAK2, Tyk2” value is listed as “Tyk2 = 145”.

For `CC(C)NC(=O)Cn1cc(Nc2nccc(NC[C@H]3CCCN3C(=O)CCC#N)n2)cn1` [Example 94, (R)-2-(4-((4-(((1-(3-cyanopropanoyl)pyrrolidin-2-yl)methyl)amino)pyrimidin-2-yl)amino)-1H-pyrazol-1-yl)-N-isopropylacetamide], the IC50 on JAK1 was 100 to 1000 nM; at JAK3, 1000 to 10000 nM; at JAK2, 1000 to 10000 nM; on TYK2 it was below 100 nM. At TYK2, the “Selectivity ratio over JAK2, Tyk2” value is reported as “Tyk2 = 609”.

`Cn1cc(Nc2nccc(NC[C@H]3CCCN3C(=O)CC#N)n2)cn1` [Example 95, (R)-3-(2-(((2-((1-methyl-1H-pyrazol-4-yl)amino)pyrimidin-4-yl)amino)methyl)pyrrolidin-1-yl)-3-oxopropanenitrile]: the half-inhibitory concentration (IC50) on JAK1 was 100 to 1000 nM; on JAK3 it was 1000 to 10000 nM; at JAK2, 1000 to 10000 nM; at TYK2 it was below 100 nM. Further, the “Selectivity ratio over JAK2, Tyk2” value at TYK2 is listed as “Tyk2 = 138”.

Consider `CC(C)NC(=O)Cn1cc(Nc2nccc(NC[C@H]3CCCN3C(=O)CC#N)n2)cn1` [Example 96, (R)-2-(4-((4-(((1-(2-cyanoacetyl)pyrrolidin-2-yl)methyl)amino)pyrimidin-2-yl)amino)-1H-pyrazol-1-yl)-N-isopropylacetamide], for which the IC50 on JAK1 was 100 to 1000 nM; at JAK3, 1000 to 10000 nM; on JAK2 it was above 10000 nM; on TYK2, below 100 nM. Moreover, the “Selectivity ratio over JAK2, Tyk2” value on TYK2 was “Tyk2 = 555”.

As for `Cn1cc(Nc2ncc(Cl)c(NC[C@H]3CCCN3CCCC#N)n2)cn1` [Example 97, (R)-4-(2-(((5-chloro-2-((1-methyl-1H-pyrazol-4-yl)amino)pyrimidin-4-yl)amino)methyl)pyrrolidin-1-yl)butanenitrile], the concentration for half-maximal inhibition (IC50) at JAK1 was below 100 nM; at JAK3, below 100 nM; at JAK2, 1000 to 10000 nM; on TYK2, below 100 nM. Besides, on JAK3, the “Selectivity ratio over JAK2, JAK3” value is “JAK3 = 160”.

As to `Cn1cc(Nc2ncc(Cl)c(NC[C@H]3CCCN3S(=O)(=O)C3CC3)n2)cn1` [Example 98, (R)-5-chloro-N^4-((1-(cyclopropylsulfonyl)pyrrolidin-2-yl)methyl)-N^2-(1-methyl-1H-pyrazol-4-yl)pyrimidine-2,4-diamine], the IC50 on JAK1 is below 100 nM; at JAK3, below 100 nM; on JAK2, 100 to 1000 nM; on TYK2, below 100 nM. The “Selectivity ratio over JAK2, JAK3” value on JAK3 is recorded as “JAK3 = 53”.

(Values after US20150005281A1, “PYRIMIDINE-2,4-DIAMINE DERIVATIVES AS KINASE INHIBITORS” (Cellzome Limited, priority 2011, published 2015).)
